Values joined by “and” are separate entries in the source; they are usually repeats but may differ in a detail not shown here. Equal values may be shown once. Toxic doses and inconclusive results are not listed. Cut-off read from the data, not from the text of the source: active = T/C of 150% or more; inactive = T/C below 125%.
Tested on: L1210 leukemia ip in BDF1 mice, survival T/C
Test: NCI In Vivo Anticancer Drug Screen. Data for tumor model L1210 Leukemia (intraperitoneal) in B6D2F1 (BDF1) mice
Conditions: endpoint: mean survival time, higher = longer survival
Method in brief: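 Tumor was transplanted into mice, which were then dosed with test compound or vehicle alone. Survival was recorded for each group, and the treated figure was expressed relative to the control figure.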

[1] = dose: 100.0 mg/kg/injection, schedule: Q04DX002 (ip), vehicle: Klucel (hydroxypropylcellulose) (HPC)
[2] = dose: 200.0 mg/kg/injection, schedule: Q04DX002 (ip), vehicle: Klucel (hydroxypropylcellulose) (HPC)
[3] = dose: 400.0 mg/kg/injection, schedule: Q04DX002 (ip), vehicle: Klucel (hydroxypropylcellulose) (HPC)
[4] = dose: 50.0 mg/kg/injection, schedule: Q01DX009 (ip), vehicle: saline
[5] = dose: 100.0 mg/kg/injection, schedule: Q01DX009 (ip), vehicle: saline
[6] = dose: 200.0 mg/kg/injection, schedule: Q01DX009 (ip), vehicle: saline
[7] = dose: 100.0 mg/kg/injection, schedule: Q01DX009 (ip), vehicle: saline with Tween-80
[8] = dose: 200.0 mg/kg/injection, schedule: Q01DX009 (ip), vehicle: saline with Tween-80
[9] = dose: 400.0 mg/kg/injection, schedule: Q01DX009 (ip), vehicle: saline with Tween-80
[10] = dose: 100.0 mg/kg/injection, schedule: Q04DX003 (ip), vehicle: saline
[11] = dose: 200.0 mg/kg/injection, schedule: Q04DX003 (ip), vehicle: saline
[12] = dose: 25.0 mg/kg/injection, schedule: Q04DX003 (ip), vehicle: saline
[13] = dose: 50.0 mg/kg/injection, schedule: Q04DX003 (ip), vehicle: saline
[14] = dose: 100.0 mg/kg/injection, schedule: Q01DX001 (ip), vehicle: carboxymethylcellulose (CMC)
[15] = dose: 200.0 mg/kg/injection, schedule: Q01DX001 (ip), vehicle: carboxymethylcellulose (CMC)
[16] = dose: 400.0 mg/kg/injection, schedule: Q01DX001 (ip), vehicle: carboxymethylcellulose (CMC)
[17] = dose: 6.25 mg/kg/injection, schedule: Q04DX003 (ip), vehicle: saline
[18] = dose: 12.5 mg/kg/injection, schedule: Q04DX003 (ip), vehicle: saline

Measured: T/C

CC(C)(C[NH-])C[NH-].CC(C)(C[NH-])C[NH-].CC(C)(C[NH-])C[NH-].[Co]
inactive: dose: 48.0 mg/kg/injection, schedule: Q01DX Z (ip), vehicle: saline 121 % of control | dose: 73.0 mg/kg/injection, schedule: Q01DX Z (ip), vehicle: saline 121 % of control | dose: 110.0 mg/kg/injection, schedule: Q01DX Z (ip), vehicle: saline 119 % of control | dose: 165.0 mg/kg/injection, schedule: Q01DX Z (ip), vehicle: saline 116 % of control

O=C(Nc1ccc(F)cc1)C(Cl)(Cl)Cl
inactive: [1] 102 % of control | [2] 94 % of control | [3] 94 % of control

Fc1cc(F)c(F)c(Nc2c(F)c(F)c(Br)c(F)c2F)c1F
inactive: dose: 25.6 mg/kg/injection, schedule: Q04DX002 (ip), vehicle: saline with Tween-80 92 % of control | dose: 64.0 mg/kg/injection, schedule: Q04DX002 (ip), vehicle: saline with Tween-80 103 % of control | dose: 160.0 mg/kg/injection, schedule: Q04DX002 (ip), vehicle: saline with Tween-80 92 % of control | dose: 400.0 mg/kg/injection, schedule: Q04DX002 (ip), vehicle: saline with Tween-80 95 % of control

CC(=O)OCC(=O)[C@@]1(O)CC[C@H]2[C@@H]3CCC4=CC(=O)CC[C@]4(C)[C@H]3C(=O)C[C@@]21C
inactive: dose: 12.5 mg/kg/injection, schedule: Q01DX015 (sc), vehicle: steriod suspending solution 102 % of control | dose: 25.0 mg/kg/injection, schedule: Q01DX015 (sc), vehicle: steriod suspending solution 100 % of control | dose: 50.0 mg/kg/injection, schedule: Q01DX015 (sc), vehicle: steriod suspending solution 100 % of control | dose: 100.0 mg/kg/injection, schedule: Q01DX001 (sc), vehicle: steriod suspending solution 101 % of control | dose: 100.0 mg/kg/injection, schedule: Q01DX015 (sc), vehicle: steriod suspending solution 107 % of control | dose: 100.0 mg/kg/injection, schedule: Q04DX003 (sc), vehicle: steriod suspending solution 108 % of control | dose: 200.0 mg/kg/injection, schedule: Q01DX001 (sc), vehicle: steriod suspending solution 92 % of control | dose: 200.0 mg/kg/injection, schedule: Q01DX015 (sc), vehicle: steriod suspending solution 110 % of control | dose: 200.0 mg/kg/injection, schedule: Q04DX003 (sc), vehicle: steriod suspending solution 102 % of control | dose: 400.0 mg/kg/injection, schedule: Q01DX001 (sc), vehicle: steriod suspending solution 111 % of control | dose: 400.0 mg/kg/injection, schedule: Q01DX015 (sc), vehicle: steriod suspending solution 104 % of control | dose: 400.0 mg/kg/injection, schedule: Q04DX003 (sc), vehicle: steriod suspending solution 98 % of control

CCOC=NC1=C(C#N)CN(Cc2ccccc2)CC1
inactive: [1] 93 % of control | [2] 93 % of control | [3] 90 % of control

Cc1cc(NC(=O)NCc2ccc(N3C(N)=NC(N)=NC3(C)C)cc2)ccc1S(=O)(=O)F
inactive: [4] 102 % of control | [5] 119 % of control | [6] 107 % of control | dose: 400.0 mg/kg/injection, schedule: Q01DX009 (ip), vehicle: saline 114 % of control

C/C=C(\C)C(=NC)Nc1ccc(Cl)c(Cl)c1
inactive: dose: 222.0 mg/kg/injection, schedule: Q01DX Z (ip), vehicle: methylcellulose (MC) 94 % of control | dose: 333.0 mg/kg/injection, schedule: Q01DX Z (ip), vehicle: methylcellulose (MC) 90 % of control

CCCCCCN1C(C)C1C(C)C (stereo not given)
inactive: dose: 20.0 mg/kg/injection, schedule: Q01DX009 (ip), vehicle: saline 114 % of control | dose: 20.0 mg/kg/injection, schedule: Q04DX003 (ip), vehicle: Klucel (hydroxypropylcellulose) (HPC) 105 % of control | dose: 40.0 mg/kg/injection, schedule: Q01DX009 (ip), vehicle: saline 115 % of control | dose: 40.0 mg/kg/injection, schedule: Q04DX003 (ip), vehicle: Klucel (hydroxypropylcellulose) (HPC) 100 % of control | dose: 80.0 mg/kg/injection, schedule: Q01DX009 (ip), vehicle: saline 107 % of control | dose: 80.0 mg/kg/injection, schedule: Q04DX003 (ip), vehicle: Klucel (hydroxypropylcellulose) (HPC) 105 % of control

O=C1C(c2ccccc2)=C2C(=C1c1ccccc1)c1cccc3cccc2c13
inactive: dose: 50.0 mg/kg/injection, schedule: Q01DX001 (ip), vehicle: saline 97 % of control | dose: 100.0 mg/kg/injection, schedule: Q01DX001 (ip), vehicle: saline 97 % of control | [7] 92 % of control | dose: 200.0 mg/kg/injection, schedule: Q01DX001 (ip), vehicle: saline 100 % of control | [8] 103 % of control | dose: 400.0 mg/kg/injection, schedule: Q01DX001 (ip), vehicle: saline 120 % of control | [9] 97 % of control

CC(=O)NCc1ccc(N2C(N)=NC(N)=NC2(C)C)cc1
inactive: dose: 75.0 mg/kg/injection, schedule: Q01DX009 (ip), vehicle: saline 92 % of control | dose: 150.0 mg/kg/injection, schedule: Q01DX009 (ip), vehicle: saline 87 % of control | dose: 300.0 mg/kg/injection, schedule: Q01DX009 (ip), vehicle: saline 90 % of control

Cn1cc(C=O)c2nccnc21
inactive: [4] 98 % of control | [5] 95 % of control | [10] 100 % of control | [6] 98 % of control | [11] 100 % of control

O=C1NC(=O)c2c(Cl)c(Cl)c(Cl)c(Cl)c21
inactive: [12] 95 % of control | [13] 106 % of control | [10] 92 % of control and 93 % of control | [11] 98 % of control | dose: 400.0 mg/kg/injection, schedule: Q04DX003 (ip), vehicle: saline 111 % of control

Cc1cccc([N+](=O)[O-])c1N
inactive: dose: 50.0 mg/kg/injection, schedule: Q01DX001 (ip), vehicle: carboxymethylcellulose (CMC) 109 % of control | [14] 109 % of control | [15] 113 % of control | [16] 115 % of control

CCCCNC(=O)Oc1cccc(NC(=O)OC)c1
inactive: [7] 96 % of control | [8] 92 % of control | [9] 105 % of control

CC(NC(=O)OC(C)(C)C)C(=O)O (stereo not given)
inactive: [14] 104 % of control | [15] 104 % of control | [16] 104 % of control

N=C(N)c1ccc(OCCCOc2ccc(C(=N)N)cc2Br)c(Br)c1
inactive: dose: 6.25 mg/kg/injection, schedule: Q01DX009 (ip), vehicle: saline 100 % of control | [17] 99 % of control | dose: 12.5 mg/kg/injection, schedule: Q01DX009 (ip), vehicle: saline 115 % of control | [18] 99 % of control | dose: 16.5 mg/kg/injection, schedule: Q01DX009 (ip), vehicle: saline 123 % of control | dose: 18.0 mg/kg/injection, schedule: Q01DX Z (ip), vehicle: methylcellulose (MC) 110 % of control | [12] 92 % of control | dose: 27.0 mg/kg/injection, schedule: Q01DX Z (ip), vehicle: methylcellulose (MC) 113 % of control | dose: 37.5 mg/kg/injection, schedule: Q01DX009 (ip), vehicle: saline 107 % of control | dose: 40.0 mg/kg/injection, schedule: Q01DX Z (ip), vehicle: methylcellulose (MC) 103 % of control | dose: 60.0 mg/kg/injection, schedule: Q01DX Z (ip), vehicle: methylcellulose (MC) 113 % of control

CCOC(=O)N1CCN(Cn2cc3c4c(cccc42)C2CC(C(=O)NC(C)C)CN(C)C2C3)CC1 (stereo not given)
inactive: [17] 88 % of control | [18] 97 % of control | [12] 100 % of control | [13] 94 % of control | [10] 97 % of control

O=Cc1c(Cl)n(-c2ccccc2)c2ccccc12
inactive: dose: 50.0 mg/kg/injection, schedule: Q04DX002 (ip), vehicle: Klucel (hydroxypropylcellulose) (HPC) 97 % of control | [1] 97 % of control | [2] 87 % of control

Cc1ccc(Cl)c(NC(=O)Nc2cccc(C(F)(F)F)c2)c1
inactive: dose: 100.0 mg/kg/injection, schedule: Q01DX009 (ip), vehicle: Klucel (hydroxypropylcellulose) (HPC) 87 % of control | dose: 200.0 mg/kg/injection, schedule: Q01DX009 (ip), vehicle: Klucel (hydroxypropylcellulose) (HPC) 87 % of control | dose: 400.0 mg/kg/injection, schedule: Q01DX009 (ip), vehicle: Klucel (hydroxypropylcellulose) (HPC) 90 % of control
